The record followed here is patent publication US10287255B2, “Compounds as histone deacetylase 6 inhibitors and pharmaceutical compositions comprising the same” (CHONG KUN DANG PHARMACEUTICAL CORP., priority 2014, dated 2019).

In one test the target is T1, human recombinant HDAC1 (Homo sapiens, UniProt Q13547).
T1 construct: purchased Enzo Life Science BML-SE456
The test can be described thus: HDAC1 enzyme activity inhibition assay (in vitro, fluorimetric). Type of test: biochemical. The settings on record: human recombinant HDAC1, fluorimetric kit, 30° C. 60 minutes. As for the experimental part: (§1) In order to examine the HDAC6 selectivity of the compounds of formula 1 of the present invention by HDAC1 and HDAC6 enzymatic activity inhibition assays, an experiment was performed using a conventional substance as a control.
(§2) HDAC enzyme activity was measured using a HDAC Fluorimetric Drug Discovery Kit (BML-AK511, 516, Enzo Life Science). For the HDAC1 enzyme activity test, human recombinant HDAC1 (BML-SE456) was used as an enzyme source, and Fluor de Lys®-“SIRT1 (BNL-KI177) was used as a substrate. A 5-fold dilution of the compound was seeded into a 96-well plate, and then 0.3 μg of the enzyme and 10 μM of the substrate were added to each well of the plate and allowed to react at 30° C. for 60 minutes. Then, Fluor de Lys® Developer II (BML-KI176) was added thereto and allowed to react for 30 minutes, after which the fluorescence value (Ex 360, Em 460) was measured using a multi-plate reader (Flexstation 3, Molecular Device). The HDAC6 enzyme was tested using human recombinant HDAC6 (382180) (Calbiochem) according to the same protocol as the HDAC1 enzyme activity test method. Based on the resulting values, each IC50 value was calculated using GraphPad Prism4.0 program.

The target of the next test is T2, human recombinant HDAC6 (Homo sapiens, UniProt Q9UBN7).
T2 construct: purchased Calbiochem 382180
T2 sequence (Q9UBN7 1-1215): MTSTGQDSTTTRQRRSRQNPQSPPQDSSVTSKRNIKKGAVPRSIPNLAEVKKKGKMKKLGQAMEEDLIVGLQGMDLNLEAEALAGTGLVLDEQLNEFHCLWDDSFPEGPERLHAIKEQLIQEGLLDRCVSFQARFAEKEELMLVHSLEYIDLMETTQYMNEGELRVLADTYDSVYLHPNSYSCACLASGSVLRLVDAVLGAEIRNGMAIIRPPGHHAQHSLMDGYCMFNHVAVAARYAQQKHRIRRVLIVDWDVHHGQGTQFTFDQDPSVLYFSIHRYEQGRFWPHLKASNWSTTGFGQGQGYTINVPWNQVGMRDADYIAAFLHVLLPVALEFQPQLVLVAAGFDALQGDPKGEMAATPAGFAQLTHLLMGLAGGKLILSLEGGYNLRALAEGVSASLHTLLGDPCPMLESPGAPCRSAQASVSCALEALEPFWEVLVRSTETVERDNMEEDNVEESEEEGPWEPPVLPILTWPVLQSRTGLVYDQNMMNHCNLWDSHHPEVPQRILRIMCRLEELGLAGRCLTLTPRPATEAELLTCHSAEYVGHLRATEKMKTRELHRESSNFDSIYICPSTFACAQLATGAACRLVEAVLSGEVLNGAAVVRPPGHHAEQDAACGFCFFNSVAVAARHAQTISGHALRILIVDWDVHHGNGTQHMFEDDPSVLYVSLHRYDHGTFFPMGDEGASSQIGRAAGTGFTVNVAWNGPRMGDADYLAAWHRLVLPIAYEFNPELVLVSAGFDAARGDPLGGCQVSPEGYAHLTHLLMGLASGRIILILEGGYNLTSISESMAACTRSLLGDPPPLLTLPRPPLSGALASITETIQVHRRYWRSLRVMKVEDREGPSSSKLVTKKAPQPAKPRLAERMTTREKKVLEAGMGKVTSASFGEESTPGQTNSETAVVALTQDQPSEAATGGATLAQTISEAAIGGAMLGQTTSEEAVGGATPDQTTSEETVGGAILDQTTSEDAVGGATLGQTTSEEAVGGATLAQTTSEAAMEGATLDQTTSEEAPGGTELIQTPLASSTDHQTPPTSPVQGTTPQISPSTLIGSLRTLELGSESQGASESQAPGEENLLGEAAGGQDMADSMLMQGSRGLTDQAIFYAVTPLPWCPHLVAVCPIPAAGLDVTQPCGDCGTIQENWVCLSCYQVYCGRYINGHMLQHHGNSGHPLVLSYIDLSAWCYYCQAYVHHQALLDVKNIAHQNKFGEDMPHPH
The experiment in a line: HDAC6 enzyme activity inhibition assay (in vitro, fluorimetric). The test is classed as biochemical. The settings on record: for HDAC6 selectivity (fold): HDAC6 selectivity over HDAC1; for IC50: human recombinant HDAC6, fluorimetric kit, same protocol as HDAC1. As for the experimental part:
as §1, §2

T1 sequence (Q13547 whole entry): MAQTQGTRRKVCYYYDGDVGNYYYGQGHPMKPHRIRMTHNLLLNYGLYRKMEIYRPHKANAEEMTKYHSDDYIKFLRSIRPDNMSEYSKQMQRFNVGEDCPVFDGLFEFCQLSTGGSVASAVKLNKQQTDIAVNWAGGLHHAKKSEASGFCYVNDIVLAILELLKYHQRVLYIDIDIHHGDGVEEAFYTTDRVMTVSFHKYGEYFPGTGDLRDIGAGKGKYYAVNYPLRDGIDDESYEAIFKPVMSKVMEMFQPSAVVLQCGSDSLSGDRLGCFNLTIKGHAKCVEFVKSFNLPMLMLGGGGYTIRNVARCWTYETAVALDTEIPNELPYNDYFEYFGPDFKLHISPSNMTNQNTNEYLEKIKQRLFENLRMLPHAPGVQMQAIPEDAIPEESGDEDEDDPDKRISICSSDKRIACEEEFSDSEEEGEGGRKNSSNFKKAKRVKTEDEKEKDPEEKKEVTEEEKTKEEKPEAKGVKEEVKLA

What is called IC50 is the point on the concentration scale where inhibition reaches its midpoint. Regarding `C[C@@H]1CN(Cc2ccc(C(=O)NO)cc2)C[C@H](C)N1C(=O)c1ccccc1-c1ccoc1` [Compound 284, 4-(((3R,5S)-4-(2-(furan-3-yl)benzoyl)-3,5-dimethylpiperazin-1-yl)methyl)-N-hydroxybenzamide], the results for the IC50 on human recombinant HDAC1 and on human recombinant HDAC6 were 5700 nM and 68 nM, respectively. The “HDAC6 selectivity (fold)” value on human recombinant HDAC6 worked out at 84 fold.

Consider `C[C@@H]1CN(Cc2ccc(C(=O)NO)cc2)C[C@H](C)N1Cc1cccc(C2=CCC(C)(C)CC2)c1` [Compound 347, 4-(((3R,5S)-4-((4′,4′-dimethyl-2′,3′,4′,5′-tetrahydro-[1,1′-biphenyl]-3-yl)methyl)-3,5-dimethylpiperazin-1-yl)methyl)-N-hydroxybenzamide], for which the IC50 on human recombinant HDAC1 was > 10000 nM; at human recombinant HDAC6, 408 nM. The “HDAC6 selectivity (fold)” value on human recombinant HDAC6 is >25 fold.

Turning to `C[C@@H]1CN(Cc2ccc(C(=O)NO)cc2)C[C@H](C)N1Cc1cccc(CN2CCN(CC(C)(C)O)CC2)c1` [Compound 386, N-hydroxy-4-(((3R,5S)-4-(3-((4-(2-hydroxy-2-methylpropyl)piperazin-1-yl)methyl)benzyl)-3,5-dimethylpiperazin-1-yl)methyl)benzamide], the figures for the IC50 at human recombinant HDAC1 and at human recombinant HDAC6 were > 10000 nM and 130 nM, respectively. For the same compound, the “HDAC6 selectivity (fold)” value on human recombinant HDAC6 is >77 fold.

`CCCC(=O)N1[C@H](C)CN(Cc2ccc(C(=O)NO)cc2)C[C@@H]1C` [Compound 294, 4-(((3R,5S)-4-butyryl-3,5-dimethylpiperazin-1-yl)methyl)-N-hydroxybenzamide]: the IC50 at human recombinant HDAC1 amounted to 8200 nM; at human recombinant HDAC6, 220 nM. Further, the “HDAC6 selectivity (fold)” value at human recombinant HDAC6 is recorded as 37 fold.

For `C[C@@H]1CN(Cc2ccc(C(=O)NO)cc2)C[C@H](C)N1Cc1ccccc1` [Compound 084, 4-(((3R,5S)-4-benzyl-3,5-dimethylpiperazin-1-yl)methyl)-N-hydroxybenzamide], the IC50 came to 11900 nM at human recombinant HDAC1 and 23 nM on human recombinant HDAC6.

As to `C[C@@H]1CN(Cc2ccc(C(=O)NO)cc2)C[C@H](C)N1Cc1ccc(CN2CCN(C)CC2)cc1` [Compound 468, 4-(((3R,5S)-3,5-dimethyl-4-(4-((4-methylpiperazin-1-yl)methyl)benzyl)piperazin-1-yl)methyl)-N-hydroxybenzamide], the IC50 is 20000 nM on human recombinant HDAC1 and 29 nM at human recombinant HDAC6. Besides, the “HDAC6 selectivity (fold)” value on human recombinant HDAC6 is 690 fold.

On to `C[C@@H]1CN(Cc2ccc(C(=O)NO)cc2)C[C@H](C)N1C(=O)c1ccccc1Cl` [Compound 120, 4-(((3R,5S)-4-(2-chlorobenzoyl)-3,5-dimethylpiperazin-1-yl)methyl)-N-hydroxybenzamide], for which the IC50 at human recombinant HDAC1 stood at 5500 nM; at human recombinant HDAC6, 18 nM. The “HDAC6 selectivity (fold)” value at human recombinant HDAC6 stood at 304 fold.

`C[C@@H]1CN(C(=O)c2cccc(-c3ccncc3)c2)C[C@H](C)N1Cc1ccc(C(=O)NO)cc1` [Compound 260, 4-(((2S,6R)-2,6-dimethyl-4-(3-(pyridin-4-yl)benzoyl)piperazin-1-yl)methyl)-N-hydroxybenzamide]: the IC50 at human recombinant HDAC1 worked out at 1700 nM. Besides, at human recombinant HDAC6, the “HDAC6 selectivity (fold)” value worked out at 3 fold and the IC50 stood at 529 nM.

Turning to `C[C@@H]1CN(Cc2ccc(C(=O)NO)cc2)C[C@H](C)N1Cc1cccc(C(=O)N2CCOCC2)c1` [Compound 446, 4-(((3R,5S)-3,5-dimethyl-4-(3-(morpholine-4-carbonyl)benzyl)piperazin-1-yl)methyl)-N-hydroxybenzamide], the IC50 at human recombinant HDAC1 was 3800 nM; at human recombinant HDAC6 it was 114 nM. Further, the “HDAC6 selectivity (fold)” value at human recombinant HDAC6 came to 33 fold.

Regarding `C[C@@H]1CN(Cc2ccc(C(=O)NO)cc2)C[C@H](C)N1CC(F)(F)F` [Compound 149, 4-(((3R,5S)-3,5-dimethyl-4-(2,2,2-trifluoroethyl)piperazin-1-yl)methyl)-N-hydroxybenzamide], the IC50 at human recombinant HDAC1 was > 10000 nM; at human recombinant HDAC6 it was 80 nM. In addition, the “HDAC6 selectivity (fold)” value on human recombinant HDAC6 is >125 fold.

For `C[C@@H]1CN(C(=O)c2cccnc2)C[C@H](C)N1Cc1ccc(C(=O)NO)cc1` [Compound 112, 4-(((2S,6R)-2,6-dimethyl-4-nicotinoylpiperazin-1-yl)methyl)-N-hydroxybenzamide], the IC50 was > 10000 nM on human recombinant HDAC1 and 154 nM on human recombinant HDAC6. Moreover, at human recombinant HDAC6, the “HDAC6 selectivity (fold)” value is recorded as >65 fold.

Turning to `C[C@@H]1CN(Cc2ccc(C(=O)NO)cc2)C[C@H](C)N1C(=O)c1ccc(CN2CCCC2)cc1` [Compound 461, 4-(((3R,5S)-3,5-dimethyl-4-(4-(pyrrolidin-1-ylmethyl)benzoyl)piperazin-1-yl)methyl)-N-hydroxybenzamide], on human recombinant HDAC1, the IC50 stood at 4200 nM. Besides, on human recombinant HDAC6, the “HDAC6 selectivity (fold)” value is given as 18 fold and the IC50 turned out to be 238 nM.

On to `C[C@@H]1CN(Cc2ccc(C(=O)NO)cc2)C[C@H](C)N1C(=O)c1ccccc1-c1ccco1` [Compound 283, 4-(((3R,5S)-4-(2-(furan-2-yl)benzoyl)-3,5-dimethylpiperazin-1-yl)methyl)-N-hydroxybenzamide], for which the IC50 is 3500 nM on human recombinant HDAC1 and 23 nM at human recombinant HDAC6. For the same compound, the “HDAC6 selectivity (fold)” value on human recombinant HDAC6 came to 154 fold.

For `C[C@@H]1CN(Cc2ccc(C(=O)NO)c(F)c2)C[C@H](C)N1Cc1ccccc1` [Compound 171, 4-(((3R,5S)-4-benzyl-3,5-dimethylpiperazin-1-yl)methyl)-2-fluoro-N-hydroxybenzamide], on human recombinant HDAC6, the “HDAC6 selectivity (fold)” value is >256 fold and the IC50 was 39 nM.

In the case of `C[C@@H]1CN(Cc2ccc3oc(C(=O)NO)cc3c2)C[C@H](C)N1Cc1ccccc1` [Compound 571, 5-(((3R,5S)-4-benzyl-3,5-dimethylpiperazin-1-yl)methyl)-N-hydroxybenzofuran-2-carboxamide], on human recombinant HDAC6, the “HDAC6 selectivity (fold)” value was determined as 48 fold and the IC50 came out at 210 nM.

With `C[C@@H]1CN(Cc2ccc(C(=O)NO)cc2)C[C@H](C)N1CCc1ccccc1` [Compound 184, 4-(((3R,5S)-3,5-dimethyl-4-phenethylpiperazin-1-yl)methyl)-N-hydroxybenzamide], at human recombinant HDAC6, the “HDAC6 selectivity (fold)” value was >40 fold and the IC50 came out at 249 nM.

Consider `C[C@@H]1CN(Cc2ccccc2)C[C@H](C)N1Cc1ccc(CC(=O)NO)cc1` [Compound 176, 2-(4-(((2S,6R)-4-benzyl-2,6-dimethylpiperazin-1-yl)methyl)phenyl)-N-hydroxyacetamide], for which, on human recombinant HDAC6, the “HDAC6 selectivity (fold)” value is >23 fold and the IC50 stood at 429 nM.

Take `C[C@@H]1CN(Cc2ccc(C(=O)NO)cc2)C[C@H](C)N1Cc1ccccc1C1=CCC(C)(C)CC1` [Compound 331, 4-(((3R,5S)-4-((4′,4′-dimethyl-2′,3′,4′,5′-tetrahydro-[1,1′-biphenyl]-2-yl)methyl)-3,5-dimethylpiperazin-1-yl)methyl)-N-hydroxybenzamide]: at human recombinant HDAC6, the “HDAC6 selectivity (fold)” value is on record as 13 fold and the IC50 came to 731 nM.

In the case of `CC(C)CCN1CCN(Cc2cccc(CN3[C@H](C)CN(Cc4ccc(C(=O)NO)cc4)C[C@@H]3C)c2)CC1` [Compound 454, N-hydroxy-4-(((3R,5S)-4-(3-((4-isopentylpiperazin-1-yl)methyl)benzyl)-3,5-dimethylpiperazin-1-yl)methyl)benzamide], on human recombinant HDAC6, the IC50 worked out at 44 nM.
